Reference: patent publication US20230129137A1, “USE OF TT-10-LOADED NANOPARTICLES FOR CARDIAC REPAIR” (THE UAB RESEARCH FOUNDATION, priority 2021, published 2023)
Entries after “also recorded” stand apart in the source; their conditions may differ.

Assays:
Yap = test: nuclear Yap in hiPSC-CMs (immunofluorescence); assay type: cell-based, human; conditions: 10 μM TT-10
Method: (§1) FIGS. 2A-2B show TT-10 enhanced survival and nuclear Yap levels in cultured hiPSC-CMs. (FIG. 2A) Apoptosis was evaluated via TUNEL staining and quantified as the percentage of TUNEL-positive cells. (FIG. 2B) hiPSC-CMs were immunofluorescently costained for Yap, and the proportion of cells with Yap-positive nuclei is presented as a percentage. Scale bar: 20 μm. All experiments were repeated 5 times. *P<0.01, Student's t test.
(§2) The effect of TT-10 (FIG. 1A) on cardiomyocyte cell cycle activity and proliferation was determined by culturing human induced pluripotent stem cell-derived cardiomyocytes (hiPSC-CMs) in varying concentrations of TT-10 (0, 2 μM, 10 μM, 20 μM or 100 μM) for 48 hours and then evaluating the presence of markers for cell proliferation (Ki67 expression, FIG. 1B), S phase (BrdU incorporation, FIG. 1C), and M phase (histone 3 phosphorylation [PH3], FIG. 1D) of the cell cycle and for cytokinesis (Aurora B, FIG. 1E). […] The effect of TT-10 on YAP pathway activity was also evaluated via Western blot (FIG. 7): total Yap levels in hiPSC-CMs treated with or without TT-10 were similar, but phosphorylated Yap (p-Yap) was less abundant in TT-10-treated cells.
Immunofluorescence. […] After staining, analyses were conducted with a fluorescence microscope.

cardiomyocytes = conditions: cited from earlier work
YAP signaling pathway = test: YAP and phosphorylated YAP abundance by Western blot in hiPSC-CMs; assay type: cell-based, human; conditions: 10 μM TT-10, 48 hours, with vs without TT-10
Method: as §2
Western blot. hiPSC-CMs were lysed with M-PER Mammalian Protein Extraction Reagent (Thermo Fisher Scientific) supplemented with Halt Protease and Phosphatase Inhibitor Cocktail (Thermo Fisher Scientific). Extracted protein was quantified by BCA protein assay kit (Thermo Fisher Scientific) and denatured by heating at 95° C. for 10 minutes. Equal quantity of protein were loaded and separated by 4%-15% precast SDS-PAGE gels (Bio-Rad), and then transferred onto a polyvinylidene difluoride membrane (Bio-Rad). […] Protein signals were imaged with a Bio-Rad ChemiDoc System and analyzed by ImageJ. […]

mouse MI = conditions: intraperitoneal injections of TT-10, mice after MI; cited from earlier work
hiPSC-CMs [1] = test: apoptosis of hiPSC-CMs by TUNEL staining; assay type: cell-based, human; conditions: 10 μM TT-10
Method: as §1, §2
TUNEL. TUNEL staining was performed with an in situ cell death detection kit (Roche). […] Apoptosis was quantified as the proportion of cells that were TUNEL positive.

hiPSC-CMs [2] = test: cell cycle activity and proliferation markers in cultured hiPSC-CMs (immunofluorescence); assay type: cell-based, human; conditions: TT-10 0, 2, 10, 20 or 100 μM, 48 hours
Method: FIGS. 1A-1E show TT-10 increased cell cycle activity and proliferation in cultured human pluripotent stem sell derived cardiomyocytes (hiPSC-CMs). (FIG. 1A) TT-10 (C11H10FN3OS2; molecular weight, 283.34 Da) contains 4 C═C, 1 C═N, and 1 C═O double bond. Maximum UV/Vis absorbance is approximately 200 nm. (FIGS. 1B-1E) hiPSC-CMs were cultured under standard conditions (—) or treated with varying concentrations of TT-10 (2 μM, 10 μM, 20 μM, or 100 μM) for 48 hours and immunofluorescently stained for the human isoform of cardiac troponin T (hcTnT). Nuclei were identified by staining with 4′,6′-diamidinio-2-phenylindole (DAPI) or with DAPI and Nkx2.5 antibodies. (FIG. 1B) Proliferation was evaluated via immunofluorescence costaining for antigen KI 67 (Ki67) and quantified as the percentage of Ki67-positive cells. (FIG. 1C) hiPSC-CMs in the S phase of the cell cycle were identified via immunofluorescence costaining for bromodeoxyuridine (BrdU) incorporation and quantified as the percentage of BrdU-positive cells. (FIG. 1D) hiPSC-CMs in the M phase of the cell cycle were identified via immunofluorescence costaining for histone 3 phosphorylation (PH3) and quantified as the percentage of PH3-positive cells. (FIG. 1E) hiPSC-CMs undergoing cytokinesis were identified via immunofluorescence costaining for Aurora B (AuB) and quantified as the percentage of AuB-positive cells. Scale bar: 20 μm. All experiments were repeated 5 times. […], 1-way ANOVA with Tukey's correction.
FIGS. 8A-8B show TT-10-NPs promoted proliferation in cultured hiPSC-CMs. hiPSC-CMs were cultured for 48 hours with or without 1 mg/mL coumarin-6-loaded TT-10-NPs (green); then, the cells were immunofluorescently stained for the human isoform of cardiac troponin I (hcTnI, gray), and nuclei were identified via DAPI staining (blue). Internalized NPs are identified with an arrow. Scale bar: 20 μm. (FIG. 8A) Proliferation was evaluated via immunofluorescence costaining for Ki67 and quantified as the percentage of Ki67-positive cells. (FIG. 8B) hiPSC-CMs in the M-phase of the cell cycle were identified via immunofluorescence costaining for PH3 and quantified as the percentage of PH3-positive cells. *P<0.01, Student's t-test; n=5 experiments.
The effect of TT-10 (FIG. 1A) on cardiomyocyte cell cycle activity and proliferation was determined by culturing human induced pluripotent stem cell-derived cardiomyocytes (hiPSC-CMs) in varying concentrations of TT-10 (0, 2 μM, 10 μM, 20 μM or 100 μM) for 48 hours and then evaluating the presence of markers for cell proliferation (Ki67 expression, FIG. 1B), S phase (BrdU incorporation, FIG. 1C), and M phase (histone 3 phosphorylation [PH3], FIG. 1D) of the cell cycle and for cytokinesis (Aurora B, FIG. 1E). […]

C=CCNc1nc(N)c(C(=O)c2ccc(F)s2)s1 [TT-10, (2-(allylamino)-4-aminothiazol-5-yl)(5-fluorothiophen-2-yl)methanone]
proportion of hiPSC-CMs with Yap-positive nuclei (Yap): significantly increased
cardiomyocyte survival and proliferation (cardiomyocytes): promoted
phosphorylated Yap (p-Yap) abundance (Western blot) (YAP signaling pathway): less abundant
total Yap levels (Western blot) (YAP signaling pathway): similar
cardiac function at later time points (mouse MI): did not prevent progressive declines
cardiomyocyte cell cycle activity (mouse MI): promoted
infarct size (mouse MI): declines in infarct size; also recorded: reduced
measures of cardiac function vs delivery vehicle (mouse MI): significantly better
hiPSC-CM apoptosis (TUNEL staining) (hiPSC-CMs [1]): significantly reduced
proportion of cells displaying Aurora B (cytokinesis) (hiPSC-CMs [2]): peaked at 10 to 20 μM TT-10
proportion of cells displaying BrdU incorporation (S phase) (hiPSC-CMs [2]): peaked at 10 to 20 μM TT-10
proportion of cells displaying Ki67 (cell proliferation) (hiPSC-CMs [2]): peaked at 10 to 20 μM TT-10
proportion of cells displaying histone 3 phosphorylation PH3 (M phase) (hiPSC-CMs [2]): peaked at 10 to 20 μM TT-10
